Laboratory results as given in ChEMBL document CHEMBL3885861, “Open TG-GATES”.

Species: Rattus norvegicus
Experiment: Open TG-GATES - Regimen: Single
Assay type: toxicity, organism-based, Sprague-Dawley
Set-up: regimen Single, gender Male, age 6 weeks
Conditions: in vivo, po, 100 mg/kg, route gavage, dose level Middle; for APTT / Bas / Eos / Fbg / Hb / Ht / Lym / MCH / MCHC / MCV / Mono / Neu / PT / Plat / RBC / Ret / WBC: tissue Blood; for KIDNEY_L / KIDNEY_R / KIDNEY_TOTAL: tissue Kidney; for LIVER: tissue Liver; for A/G / ALP / ALT / AST / BUN / CRE / Ca / Cl / DBIL / GLC / IP / K / LDH / Na / PL / RALB / TBIL / TC / TG / TP / gamma-GTP: tissue Plasma

In the case of `NC(=O)N/N=C/c1ccc([N+](=O)[O-])o1` [NITROFURAZONE], the TERMINAL_BW (3 h) is reported as 183.7 g, the APTT (3 h) is reported as 16.6 s and the Bas (3 h) is reported as 0.2%. The Eos (3 h) was 1%, the Fbg (3 h) was 235.8 mg/dL and the Hb (3 h) was 12.4 g/dL. It also gave a Ht (3 h) of 38.5%, a Lym (3 h) of 73.4% and an MCH (3 h) of 21.7 pg. For the same compound, the MCHC (3 h) was 32.3%, the MCV (3 h) was 67.2 fL and the Mono (3 h) was 5.2%. It also gave a Neu (3 h) of 19.6%, a PT (3 h) of 14.8 s and a Plat (3 h) of 123.7 x10_4/uL. For the same compound, the RBC (3 h) was 572.4 x10_4/ul, the Ret (3 h) was 11.4% and the WBC (3 h) was 71.3 x10_2/uL. The KIDNEY_L (3 h) was 0.8 g, the KIDNEY_R (3 h) was 0.8 g and the KIDNEY_TOTAL (3 h) was 1.6 g. The LIVER (3 h) was 7.7 g, the A/G (3 h) was 0.9 and the ALP (3 h) was 1361.8 IU/L. It also gave an ALT (3 h) of 41.2 IU/L, an AST (3 h) of 74.8 IU/L and a BUN (3 h) of 11.8 mg/dL. The CRE (3 h) was 0.2 mg/dL, the Ca (3 h) was 11.3 mg/dL and the Cl (3 h) was 104.8 meq/L. For the same compound, the DBIL (3 h) was 0.006 mg/dL, the GLC (3 h) was 177.6 mg/dL and the IP (3 h) was 8.8 mg/dL. It also gave a K (3 h) of 4.3 meq/L, an LDH (3 h) of 51.6 IU/L and a Na (3 h) of 140.8 meq/L. For the same compound, the PL (3 h) was 127.6 mg/dL, the RALB (3 h) was 2.4 g/dL and the TBIL (3 h) was 0.06 mg/dL. It also gave a TC (3 h) of 73.4 mg/dL, a TG (3 h) of 29.8 mg/dL and a TP (3 h) of 5.2 g/dL. The gamma-GTP (3 h) was 1.2 IU/L, the TERMINAL_BW (6 h) was 182.2 g and the APTT (6 h) was 16 s. For the same compound, the Bas (6 h) was 0%, the Eos (6 h) was 1% and the Fbg (6 h) was 272.8 mg/dL. It also gave a Hb (6 h) of 12.8 g/dL, a Ht (6 h) of 40% and a Lym (6 h) of 71.2%. The MCH (6 h) was 21.3 pg, the MCHC (6 h) was 32% and the MCV (6 h) was 66.4 fL. It also gave a Mono (6 h) of 3.2%, a Neu (6 h) of 23.8% and a PT (6 h) of 14.6 s. The Plat (6 h) was 112.7 x10_4/uL, the RBC (6 h) was 602 x10_4/ul and the Ret (6 h) was 10.1%. It also gave a WBC (6 h) of 85.4 x10_2/uL, a KIDNEY_L (6 h) of 0.8 g and a KIDNEY_R (6 h) of 0.8 g. It also gave a KIDNEY_TOTAL (6 h) of 1.7 g, an LIVER (6 h) of 7.3 g and an A/G (6 h) of 0.9. It also gave an ALP (6 h) of 1451.4 IU/L, an ALT (6 h) of 41.4 IU/L and an AST (6 h) of 74 IU/L. For the same compound, the BUN (6 h) was 8.6 mg/dL, the CRE (6 h) was 0.2 mg/dL and the Ca (6 h) was 11.3 mg/dL. The Cl (6 h) was 105.2 meq/L, the DBIL (6 h) was 0.01 mg/dL and the GLC (6 h) was 162.4 mg/dL. For the same compound, the IP (6 h) was 9.8 mg/dL, the K (6 h) was 3.8 meq/L and the LDH (6 h) was 85.8 IU/L. The Na (6 h) was 142.4 meq/L, the PL (6 h) was 146.6 mg/dL and the RALB (6 h) was 2.4 g/dL. It also gave a TBIL (6 h) of 0.072 mg/dL, a TC (6 h) of 89.4 mg/dL and a TG (6 h) of 25.8 mg/dL. The TP (6 h) was 5.2 g/dL, the gamma-GTP (6 h) was 1.2 IU/L and the TERMINAL_BW (9 h) was 176.6 g. It also gave an APTT (9 h) of 15.8 s, a Bas (9 h) of 0% and an Eos (9 h) of 1%. For the same compound, the Fbg (9 h) was 270.8 mg/dL, the Hb (9 h) was 13.5 g/dL and the Ht (9 h) was 41.4%. For the same compound, the Lym (9 h) was 72.5%, the MCH (9 h) was 21.6 pg and the MCHC (9 h) was 32.4%. For the same compound, the MCV (9 h) was 66.6 fL, the Mono (9 h) was 2.8% and the Neu (9 h) was 22.8%. It also gave a PT (9 h) of 14.8 s, a Plat (9 h) of 103.9 x10_4/uL and an RBC (9 h) of 622.2 x10_4/ul. For the same compound, the Ret (9 h) was 10.2%, the WBC (9 h) was 69.6 x10_2/uL and the KIDNEY_L (9 h) was 0.8 g. For the same compound, the KIDNEY_R (9 h) was 0.8 g, the KIDNEY_TOTAL (9 h) was 1.6 g and the LIVER (9 h) was 7.2 g. The A/G (9 h) was 0.9, the ALP (9 h) was 1273.8 IU/L and the ALT (9 h) was 39 IU/L. It also gave an AST (9 h) of 74.5 IU/L, a BUN (9 h) of 9 mg/dL and a CRE (9 h) of 0.2 mg/dL. The Ca (9 h) was 10.9 mg/dL, the Cl (9 h) was 104.5 meq/L and the DBIL (9 h) was 0.0175 mg/dL. For the same compound, the GLC (9 h) was 165 mg/dL, the IP (9 h) was 11.4 mg/dL and the K (9 h) was 4 meq/L. It also gave an LDH (9 h) of 69.2 IU/L, a Na (9 h) of 142.2 meq/L and a PL (9 h) of 149.5 mg/dL. It also gave an RALB (9 h) of 2.4 g/dL, a TBIL (9 h) of 0.0675 mg/dL and a TC (9 h) of 83.5 mg/dL. The TG (9 h) was 38.8 mg/dL, the TP (9 h) was 5.1 g/dL and the gamma-GTP (9 h) was 1.2 IU/L. The TERMINAL_BW (24 h) was 185.1 g, the APTT (24 h) was 15.7 s and the Bas (24 h) was 0%. The Eos (24 h) was 0.6%, the Fbg (24 h) was 296 mg/dL and the Hb (24 h) was 13.1 g/dL. The Ht (24 h) was 40.5%, the Lym (24 h) was 83.4% and the MCH (24 h) was 21.8 pg. It also gave an MCHC (24 h) of 32.4%, an MCV (24 h) of 67.2 fL and a Mono (24 h) of 3%. For the same compound, the Neu (24 h) was 12.2%, the PT (24 h) was 14.8 s and the Plat (24 h) was 109 x10_4/uL. It also gave an RBC (24 h) of 602 x10_4/ul, a Ret (24 h) of 9.3% and a WBC (24 h) of 90.2 x10_2/uL. For the same compound, the KIDNEY_L (24 h) was 0.8 g, the KIDNEY_R (24 h) was 0.8 g and the KIDNEY_TOTAL (24 h) was 1.7 g. The LIVER (24 h) was 8.6 g, the A/G (24 h) was 0.9 and the ALP (24 h) was 1441.6 IU/L. It also gave an ALT (24 h) of 44.6 IU/L, an AST (24 h) of 78.4 IU/L and a BUN (24 h) of 14 mg/dL. The CRE (24 h) was 0.2 mg/dL, the Ca (24 h) was 11 mg/dL and the Cl (24 h) was 103.6 meq/L. For the same compound, the DBIL (24 h) was 0.016 mg/dL, the GLC (24 h) was 168.8 mg/dL and the IP (24 h) was 8.5 mg/dL. It also gave a K (24 h) of 4 meq/L, an LDH (24 h) of 71.6 IU/L and a Na (24 h) of 140.6 meq/L. For the same compound, the PL (24 h) was 140.6 mg/dL, the RALB (24 h) was 2.5 g/dL and the TBIL (24 h) was 0.058 mg/dL. For the same compound, the TC (24 h) was 77.6 mg/dL, the TG (24 h) was 73.8 mg/dL and the TP (24 h) was 5.4 g/dL. The gamma-GTP (24 h) was 1 IU/L.
